These results are taken from patent US10906899B2, “Bicyclic fused pyrazole derivatives for the treatment of RSV” (GEORGIA STATE UNIVERSITY RESEARCH FOUNDATION, INC., priority 2016, dated 2021).

For this test, the system named is RSV. Kind of test: Dose-response counterscreen: luciferase reporter virus infection of BEAS-2B cells (EC50). The class given is cell-based, respiratory syncytial virus (RSV). The settings on record: human respiratory syncytial virus, B series compounds, read-out: Potency Range (EC50 values).
One may read the EC50 as the concentration giving half of the maximal effect. Turning to `Cc1c2c(=O)n(-c3nc4ccccc4s3)n(Cc3ccccc3)c2cc(=O)n1Cc1cccc(N2CCN(C)CC2)n1` [AVG-225], the 50% effective concentration (EC50) lay in the range of 100 to 1000 nM. With `Cc1c2c(=O)n(-c3nc4ccccc4s3)n(Cc3ccccc3)c2cc(=O)n1Cc1cccc(C2CCOCC2)n1` [AVG-227] the figure was 100 to 1000 nM; with `Cc1c2c(=O)n(-c3nc4ccccc4s3)n(Cc3ccccc3)c2cc(=O)n1Cc1cccc(N2CCOCC2)n1` [AVG-228], 100 to 1000 nM. As for `Cc1c2c(=O)n(-c3ccccn3)n(Cc3ccccc3)c2cc(=O)n1Cc1cccc(-c2ccccc2)n1` [AVG-229], the EC50 was in the range of 100 to 1000 nM.

For the compound `Cc1c2c(=O)n(-c3ccccn3)n(Cc3ccccc3)c2cc(=O)n1Cc1cccc(OC(C)C)n1` [AVG-230], the concentration for a half-maximal effect (EC50) lay within 100 to 1000 nM.

For `COc1ccc(Cn2c3cc(=O)n(Cc4cccc(OC)n4)c(C)c3c(=O)n2-c2nc3ccccc3s2)cc1` [AVG-231], the 50% effective concentration (EC50) lay in the range of 10 to 100 nM.

For `COc1ccc(Cn2c3cc(=O)n(Cc4cccc(OC)n4)c(C)c3c(=O)n2-c2ccccn2)cc1` [AVG-232], the EC50 lay within 10 to 100 nM. On to `COc1ccc(Cn2c3cc(=O)n(Cc4cccc(Cl)n4)c(C)c3c(=O)n2-c2ccccn2)cc1` [AVG-233], for which the EC50 is 10 to 100 nM.

For `Cc1c2c(=O)n(-c3ccccn3)n(Cc3ccc(OC(C)C)cc3)c2cc(=O)n1Cc1cccc(Cl)n1` [AVG-234], the concentration for a half-maximal effect (EC50) fell in the range of 100 to 1000 nM. With `Cc1c2c(=O)n(-c3ccccn3)n(Cc3ccccc3)c2cc(=O)n1Cc1nccs1` [AVG-239], the EC50 lay in the range of 1000 to 10000 nM. With `COc1cccc(Cn2c(C)c3c(=O)n(-c4cc(Cl)ccn4)n(Cc4ccccc4)c3cc2=O)n1` [AVG-245] the figure was 100 to 1000 nM; with `Cc1c2c(=O)n(-c3ccccn3)n(Cc3ccccc3)c2cc(=O)n1Cc1nc(Cl)cs1` [AVG-252], 100 to 1000 nM; with `COc1cccc(Cn2c(C)c3c(=O)n(-c4ccccn4)n(Cc4ccc(OC(C)C)cc4)c3cc2=O)n1` [AVG-253], 100 to 1000 nM.

Take `COc1ccc(Cn2c3cc(=O)n(Cc4cccc(OC(C)C)n4)c(C)c3c(=O)n2-c2ccccn2)cc1` [AVG-254]: the EC50 was 100 to 1000 nM.

For `Cc1c2c(=O)n(-c3nc4ccc(OC(C)C)cc4s3)n(Cc3ccccc3)c2cc(=O)n1Cc1cccc(Cl)n1` [AVG-256], the concentration giving a half-maximal response (EC50) fell in the range of 10 to 100 nM. To `COc1cc(C2CC(=O)Nc3c2c(OS(=O)(=O)C(F)(F)F)nn3-c2nc3ccccc3s2)ccc1OC1CCCC1` (stereo not shown) [AVG-257, 1-(benzo[d]thiazol-2-yl)-4-(4-(cyclopentyloxy)-3-methoxyphenyl)-6-oxo-4,5,6,7-tetrahydro-1H-pyrazolo[3,4-b]pyridin-3-yl trifluoromethanesulfonate] belongs 10000 to 20000 nM.
